Data: patent US10206904B2, “Licofelone derivatives and methods of use” (The Board of Regents of the University of Oklahoma, priority 2015, dated 2019)
Values joined by “and” are separate entries in the source; they are usually repeats but may differ in a detail not shown here. Equal values may be shown once. Read-outs that look alike come from different tables or passages of the source.

Legend:
[1] = test system: colonic aberrant crypt foci (ACF); conditions: male F344 rats
Method: Male F344 rats at 8 weeks of age treated with AOM (15 mg/Kg BW) and exposed to 2% DSS for three days. […] Further, the inflammation was scored by following below criteria:
ACF form before colorectal polyps and are an indicator of the potential for cancer.

AOM-induced colon tumors = conditions: for % AdCA Inhibition (incidence) / % AdCA Inhibition (multiplicity) / % Inv AdCA Inhibition (incidence) / % Inv AdCA Inhibition (multiplicity) / % Non-Inv AdCA Inhibition (incidence) / % Non-Inv AdCA Inhibition (multiplicity) / % adenoma Inhibition (incidence) / % adenoma Inhibition (multiplicity) / % of CRC Tumor Inhibition (incidence) / % of CRC Tumor Inhibition (multiplicity) / AdCA Incidence (% Rats with AdCa) / AdCA Incidence (rats with AdCa/rats) / AdCA Multiplicity (Mean ± SEM) / Adenoma Incidence (% Rats with Adenomas) / Adenoma Incidence (rats with adenomas/rats) / Adenoma Multiplicity (Mean ± SEM) / Invasive AdCA Incidence (% Rats with Invasive AdCa) / Invasive AdCA Incidence (rats with Invasive AdCa/rats) / Invasive AdCA Multiplicity (Mean ± SEM) / Multiplicity Total CRC Tumors (Adenoma + AdCa) (Mean ± SEM) / Non-Inv AdCa Incidence (% Rats with Non-Inv AdCa) / Non-Inv AdCa Incidence (rats with Non-Inv AdCa/rats) / Non-Inv AdCa Multiplicity (Mean ± SEM) / Total CRC Tumors (Adenoma + AdCa) incidence (% rats) / Total CRC Tumors (Adenoma + AdCa) incidence (rats with tumors/rats): AOM-treated male F344 rats
Method: After 42 weeks of experimental diet feeding and total 52 weeks of experimental duration, the rats were necropsied. After necropsy of the rats, the colonic tumors were analyzed histologically. Histopathological evaluation colonic tumor has been completed by two pathologists independently. Colonic tumors were histopathologically classified to adenomas or adenocarcinomas either exophytic (non-invasive) or endophytic (invasive).
Colonic tumors (CTs) were induced by colon specific carcinogen, azoxymethane (AOM) (15 mg/kg by wt, once weekly for 2 weeks) in F344 rats at 8 weeks' age. […] Rats were killed by CO2 asphyxiation 36 weeks after second AOM and the colons were removed, rinsed in PBS, opened longitudinally, and flattened on a filter paper. The location and size of each tumor were noted. Tumors were removed, snap frozen, or fixed in 10% buffered formalin for 24 hours and transferred to 80% ethanol for histopathological analysis. The number and type of colon tumors (adenoma and adenocarcinoma) were analyzed histologically blinded to treatment groups and compared with control diet fed rat colonic tumors.

[2] = test system: AOM plus DSS induced colonic inflammation; conditions: for AOM-DSS-Induced Inflammation Score: two weeks, male F344 rats
Source text: Inflammation Score based on histological observations using the modified Sydney classification for colonic inflammation:
Following score criteria has been applied: • i. Score 0: No inflammation or changes in the colonic crypt morphology • ii. Score 1. Presence of neutrophil infiltration and chronic lymphocytic inflammation. • iii. Score 2. Surface epithelial damage, mild atrophy, lymphoid follicles • iv. Score 3: Severe atrophy and intestinal metaplasia.

[3] = test system: small intestinal polyps and colon tumors of Apc Min/+ mice; conditions: for intestinal tumor inhibition: high-dose (700 ppm)
Method: Male Apc^Min/+ (C57BL/6J) and female wild-type littermate mice were initially purchased from The Jackson Laboratory (Bar Harbor, Me.) as founders, and our own breeding colony was established in OUHSC rodent barrier facility and genotyped according to vendor's instructions. All mice were housed 3 per cage in ventilated cages under standardized conditions (21° C., 60% relative humidity, 12 h light/12 h dark cycle, 20 air changes/hr). All mice were allowed ad libitum access to the respective diets and automated tap water purified by reverse osmosis.
All diet ingredients for the semi-purified diets were purchased from Bioserve (Frenchtown, N.J.) and stored at 4° C. before diet preparation. Diets were based on the modified American Institute of Nutrition (AIN)-76A diet. […] Both control and experimental diets were prepared weekly and stored in a cold room. Agent content in the experimental diets was determined periodically in multiple samples taken from the top, middle, and bottom portions of individual diet preparations to verify uniform distribution.
Genotyped Male and female Apc^Min/+ mice were used in the efficacy study. Five week old mice were distributed so that average body weights in each group were equal (10/9 Apc^Min/+ mice in each group) and were fed with AIN-76A diet for one week. […] Body weight, food, and fluid consumption were monitored weekly for signs of weight loss or lethargy that might indicate intestinal obstruction or anemia. Mice were routinely checked for any abnormalities. After 12 weeks, all mice were euthanized by CO2 asphyxiation, blood was collected immediately by heart puncture, and serum was separated by centrifugation and stored at −80° C. until further analysis. […] After necropsy, the entire intestinal tract was harvested, flushed with 0.9% NaCl and opened longitudinally from the esophagus to the distal rectum. The tissue was flattened on filter paper to expose the tumors and briefly frozen on dry ice to aid visual scoring of tumors. The number, location, and size of visible tumors in the entire intestine were determined under a dissection microscope (×5). All tumors were scored and subdivided by location (duodenal, jejunal and ileum and colon) and size (>2 mm, 1-2 or <1 mm in diameter). This procedure was completed by two individuals who were blinded to the experimental group and the genetic status of the mice. Colonic and other small intestinal tumors that required further histopathologic evaluation to identify adenoma, adenocarcinoma, and enlarged lymph nodes were fixed in 10% neutral-buffered formalin, embedded in paraffin blocks, and processed by routine H&E staining.
All results are expressed as mean±SE and were analyzed by Student's t test. Differences were considered significant at the P<0.05 level.

[4] = 800 ppm in diet, saline treated male F344 rats
[5] = 350 and 700 ppm, female Apc Min/+ mice
[6] = 350 ppm in diet, female Apc Min/+ mice
[7] = 350 ppm in diet, male Apc Min/+ mice

## CC1(C)Cc2c(-c3ccccc3)c(-c3ccc(Cl)cc3)c(CC(=O)NCC(=O)O)n2C1 [LFA-9, licofelone-glycine]
[1]; 200 ppm in diet
  4 or >multi-crypt AC/colon (Mean ± SEM): 23.5 ± 2.1
  % Inhibition (4 or >multi-crypt AC/colon): 30%
  % Inhibition (total ACF/colon): 29.5%
  Total ACF/Colon (Mean ± SEM): 110 ± 6.1
[1]; 400 ppm in diet
  4 or >multi-crypt AC/colon (Mean ± SEM): 18.3 ± 2.0
  % Inhibition (4 or >multi-crypt AC/colon): 45.4%
  % Inhibition (total ACF/colon): 44.2%
  Total ACF/Colon (Mean ± SEM): 84 ± 5.3
[1]; 600 ppm in diet
  4 or >multi-crypt AC/colon (Mean ± SEM): 13.5 ± 1.7
  % Inhibition (4 or >multi-crypt AC/colon): 61.2%
  % Inhibition (total ACF/colon): 60.5%
  Total ACF/Colon (Mean ± SEM): 62 ± 4.8
AOM-induced colon tumors; 200 ppm in diet
  % AdCA Inhibition (incidence): 60%
  % AdCA Inhibition (multiplicity): 77%
  % Inv AdCA Inhibition (incidence): 85.1%
  % Inv AdCA Inhibition (multiplicity): 86.0%
  % Non-Inv AdCA Inhibition (incidence): 63.0%
  % Non-Inv AdCA Inhibition (multiplicity): 72.9%
  % adenoma Inhibition (incidence): 53%
  % adenoma Inhibition (multiplicity): 38.3% and 38.27%
  % of CRC Tumor Inhibition (incidence): 47.5%
  % of CRC Tumor Inhibition (multiplicity): 64% and 64.05%
  AdCA Incidence (% Rats with AdCa): (33.3%)
  AdCA Incidence (rats with AdCa/rats): 10/30
  AdCA Multiplicity (Mean ± SEM): 0.37±0.07 Tumors/Rat
  Adenoma Incidence (% Rats with Adenomas): (30.0%)
  Adenoma Incidence (rats with adenomas/rats): 9/30
  Adenoma Multiplicity (Mean ± SEM): 0.50±0.07 Tumors/Rat
  Invasive AdCA Incidence (% Rats with Invasive AdCa): (6.66%)
  Invasive AdCA Incidence (rats with Invasive AdCa/rats): 2/30
  Invasive AdCA Multiplicity (Mean ± SEM): 0.07 ± 0.02 Tumors/Rat
  Multiplicity Total CRC Tumors (Adenoma + AdCa) (Mean ± SEM): 0.87 ± 0.12 Tumors/Rat
  Non-Inv AdCa Incidence (% Rats with Non-Inv AdCa): (26.7%)
  Non-Inv AdCa Incidence (rats with Non-Inv AdCa/rats): 8/30
  Non-Inv AdCa Multiplicity (Mean ± SEM): 0.30 ± 0.05 Tumors/Rat
  Total CRC Tumors (Adenoma + AdCa) incidence (% rats): (46.6%)
  Total CRC Tumors (Adenoma + AdCa) incidence (rats with tumors/rats): 14/30
AOM-induced colon tumors; 400 ppm in diet
  % AdCA Inhibition (incidence): 67.9%
  % AdCA Inhibition (multiplicity): 81.3%
  % Inv AdCA Inhibition (incidence): 77.4%%
  % Inv AdCA Inhibition (multiplicity): 80.0%
  % Non-Inv AdCA Inhibition (incidence): 72.3%
  % Non-Inv AdCA Inhibition (multiplicity): 82.0%
  % adenoma Inhibition (incidence): 53%
  % adenoma Inhibition (multiplicity): 46.9%
  % of CRC Tumor Inhibition (incidence): 55.5% and 55.0%
  % of CRC Tumor Inhibition (multiplicity): 69.1% and 69.08%
  AdCA Incidence (% Rats with AdCa): (26.7%)
  AdCA Incidence (rats with AdCa/rats): 8/30
  AdCA Multiplicity (Mean ± SEM): 0.30±0.07 Tumors/Rat
  Adenoma Incidence (% Rats with Adenomas): (30.0%)
  Adenoma Incidence (rats with adenomas/rats): 9/30
  Adenoma Multiplicity (Mean ± SEM): 0.43±0.06 Tumors/Rat
  Invasive AdCA Incidence (% Rats with Invasive AdCa): (10.0%)
  Invasive AdCA Incidence (rats with Invasive AdCa/rats): 3/30
  Invasive AdCA Multiplicity (Mean ± SEM): 0.10 ± 0.02 Tumors/Rat
  Multiplicity Total CRC Tumors (Adenoma + AdCa) (Mean ± SEM): 0.73 ± 0.10 Tumors/Rat
  Non-Inv AdCa Incidence (% Rats with Non-Inv AdCa): (20.0%)
  Non-Inv AdCa Incidence (rats with Non-Inv AdCa/rats): 6/30
  Non-Inv AdCa Multiplicity (Mean ± SEM): 0.20 ± 0.04 Tumors/Rat
  Total CRC Tumors (Adenoma + AdCa) incidence (% rats): (40.0%)
  Total CRC Tumors (Adenoma + AdCa) incidence (rats with tumors/rats): 12/30
AOM-induced colon tumors; 800 ppm in diet
  % AdCA Inhibition (incidence): 76%
  % AdCA Inhibition (multiplicity): 85.7%
  % Inv AdCA Inhibition (incidence): 92.5%
  % Inv AdCA Inhibition (multiplicity): 94.0%
  % Non-Inv AdCA Inhibition (incidence): 72.3%
  % Non-Inv AdCA Inhibition (multiplicity): 82.0%
  % adenoma Inhibition (incidence): 58.2%
  % adenoma Inhibition (multiplicity): 42%
  % of CRC Tumor Inhibition (incidence): 47.5%
  % of CRC Tumor Inhibition (multiplicity): 71.1% and 71.07%
  AdCA Incidence (% Rats with AdCa): (20.0%)
  AdCA Incidence (rats with AdCa/rats): 6/30
  AdCA Multiplicity (Mean ± SEM): 0.23±0.05 Tumors/Rat
  Adenoma Incidence (% Rats with Adenomas): (26.7%)
  Adenoma Incidence (rats with adenomas/rats): 8/30
  Adenoma Multiplicity (Mean ± SEM): 0.47±0.06 Tumors/Rat
  Invasive AdCA Incidence (% Rats with Invasive AdCa): (3.33%)
  Invasive AdCA Incidence (rats with Invasive AdCa/rats): 1/30
  Invasive AdCA Multiplicity (Mean ± SEM): 0.03 ± 0.01 Tumors/Rat
  Multiplicity Total CRC Tumors (Adenoma + AdCa) (Mean ± SEM): 0.70 ± 0.10 Tumors/Rat
  Non-Inv AdCa Incidence (% Rats with Non-Inv AdCa): (20.0%)
  Non-Inv AdCa Incidence (rats with Non-Inv AdCa/rats): 6/30
  Non-Inv AdCa Multiplicity (Mean ± SEM): 0.20 ± 0.04 Tumors/Rat
  Total CRC Tumors (Adenoma + AdCa) incidence (% rats): (46.6%)
  Total CRC Tumors (Adenoma + AdCa) incidence (rats with tumors/rats): 14/30
AOM-induced colon tumors; [4]
  AdCA Incidence: 0
  AdCA Multiplicity: 0 Tumors/Rat
  Adenoma Incidence: 0
  Adenoma Multiplicity: 0 Tumors/Rat
  Invasive AdCA Incidence: 0
  Invasive AdCA Multiplicity: 0 Tumors/Rat
  Multiplicity Total CRC Tumors (Adenoma + AdCa): 0 Tumors/Rat
  Non-Inv AdCa Incidence: 0
  Non-Inv AdCa Multiplicity: 0 Tumors/Rat
  Total CRC Tumors (Adenoma + AdCa) incidence: 0
AOM-induced colon tumors; chronic administration up to 800 ppm in diet, F344 rats
  body weight retardation and observable toxicities: did not show any significant body weight retardation and any observable toxicities
[2]; 100 ppm in diet
  AOM-DSS-Induced Inflammation Score: 1
[2]; 200 ppm in diet
  AOM-DSS-Induced Inflammation Score: 0 to 1
[2]; 400 ppm in diet
  AOM-DSS-Induced Inflammation Score: 0
[2]; 600 ppm in diet
  AOM-DSS-Induced Inflammation Score: 0
[2]; 800 ppm in diet
  AOM-DSS-Induced Inflammation Score: 0
[2]; >100 ppm in diet, AOM-DSS rats
  infiltration of inflammatory cells in colonic mucosa and submucosa: significantly suppressed infiltration of inflammatory cells
[2]; >100 ppm in diet, AOM/DSS rats
  inflammation: completely blocked inflammation
[2]; all rats fed LFA-9, lowest to highest doses (100-800 ppm)
  inflammation score: Score 1 (lowest to highest doses) or no inflammation
[2]; up to 800 ppm in diet
  toxicity in male F344 rats: did not induce significant toxicity
[3]; [5]
  colonic tumors per mouse: 0.1 tumors per mouse
  reduction in the colonic tumors: 90%
[3]; [6]
  colon tumor inhibition: 90%
  fewer polyps with sizes greater than 2 mm: 81.6%
[3]; [7]
  colon tumor inhibition: 60%
  fewer polyps with sizes greater than 2 mm: 76.8%
  total intestinal tumors (polyps), means±SEM: 31.6±5.99
[3]; 700 ppm in diet, both genders, Apc Min/+ mice
  suppression of polyps of greater than 2 mm size: more than 81%
[3]; 700 ppm in diet, both male and female Apc Min/+ mice
  inhibition of colon tumors: 91%
[3]; 700 ppm in diet, female Apc Min/+ mice
  total intestinal tumors (polyps), means±SEM: 15.5±1.79
[3]; 700 ppm in diet, male Apc Min/+ mice
  total intestinal tumors (polyps), means±SEM: 24.3±3.7
[3]; LFA-9 in diet (350, 700 ppm)
  body weights of Apc Min/+ mice versus control diet: higher weight gains
[3]; female Apc Min/+ mice
  intestinal tumor inhibition: 73.8%
[3]; male Apc Min/+ mice
  intestinal tumor inhibition: approximately 56%
[3]; wild-type mice
  gross changes attributable to toxicity in liver, kidneys or lungs; body weight gain: did not produce any gross changes attributable to toxicity
